Measured values as given in ChEMBL document CHEMBL4000213, “New antiprotozoal agents: Synthesis and biological evaluation of different 4-(7-chloroquinolin-4-yl) piperazin-1-yl)pyrrolidin-2-yl)methanone derivatives” (Bioorg Med Chem Lett, 2017).
pIC50: −log10 of the molar value. Active and inactive are the calls of the source. No cut-off for these calls is given here.

What was measured:
Entamoeba histolytica = test: Anti-amoebic activity against trophozoites of Entamoeba histolytica HM-1:IMSS gassed with nitrogen for 10 mins measured after 72 hrs by eosin staining based micro dilution method; assay type: functional
Plasmodium falciparum = test: Antimalarial activity against chloroquine-sensitive Plasmodium falciparum NF54 infected in erythrocytes measured after 48 hrs by Malstat/nitroblue tetrazolium/phenazine ethosulphate reagent based LDH assay; assay type: functional, cell-based; conditions: NF54, 48 h
HEK293 = test: Cytotoxicity against HEK293 cells measured after 48 hrs by MTT assay; assay type: cell-based; conditions: Homo sapiens, HEK293, 48 h
[1] = Selectivity index, ratio of IC50 for cytotoxicity against HEK293 cells to IC50 for anti-malarial activity against chloroquine-sensitive Plasmodium falciparum NF54 infected in erythrocytes; assay type: toxicity, cell-based; conditions: human; read-out: Ratio IC50
[2] = Antioxidant activity assessed as inhibition of ferrous chloride-induced lipid peroxidation at 50 uM preincubated for 24 hrs followed by ferrous chloride addition relative to control; assay type: functional
Anopheles arabiensis [3] = test: Larvicidal activity against Anopheles arabiensis KGB at 0.5 uM measured after 24 hrs relative to control; assay type: functional
Anopheles arabiensis [4] = test: Larvicidal activity against Anopheles arabiensis KGB measured after 24 hrs; assay type: functional; conditions: read-out: LD50 (the source's name)

For `O=C([C@H]1CCCN1S(=O)(=O)c1ccccc1)N1CCN(c2ccnc3cc(Cl)ccc23)CC1`, the pIC50 (Entamoeba histolytica) was 5.90, the pIC50 (Plasmodium falciparum) was 5.27 and the pIC50 (HEK293) was 4.19. For the same compound, the selectivity ratio [1] was 12, the inhibition [2] was < 1% and the Activity (Anopheles arabiensis [3]) was “inactive”.
Compound `CC(C)(C)c1ccc(S(=O)(=O)N2CCC[C@@H]2C(=O)N2CCN(c3ccnc4cc(Cl)ccc34)CC2)cc1` has a pIC50 (Entamoeba histolytica) of 6.11, a pIC50 (Plasmodium falciparum) of 5.49 and a pIC50 (HEK293) of 4.27. The selectivity ratio [1] was 16.5, the inhibition [2] was < 1% and the Activity (Anopheles arabiensis [3]) was “inactive”.
For `O=C([C@H]1CCCN1S(=O)(=O)c1ccc2ccccc2c1)N1CCN(c2ccnc3cc(Cl)ccc23)CC1`, the pIC50 (Entamoeba histolytica) was 6.47, the pIC50 (Plasmodium falciparum) was 5.46 and the pIC50 (HEK293) was 4.61. The selectivity ratio [1] was 7.06, the inhibition [2] was < 1% and the Activity (Anopheles arabiensis [3]) was “inactive”.
`O=C([C@H]1CCCN1S(=O)(=O)c1ccc(Cl)cc1)N1CCN(c2ccnc3cc(Cl)ccc23)CC1` gave a pIC50 (Entamoeba histolytica) of 6.51, a pIC50 (Plasmodium falciparum) of 5.20 and a pIC50 (HEK293) of 4.34. The selectivity ratio [1] was 7.27, the inhibition [2] was < 1% and the Activity (Anopheles arabiensis [3]) was “inactive”.
For `CCCS(=O)(=O)N1CCC[C@@H]1C(=O)N1CCN(c2ccnc3cc(Cl)ccc23)CC1`, the pIC50 (Entamoeba histolytica) was 5.16, the inhibition [2] was < 1% and the Activity (Anopheles arabiensis [3]) was “inactive”.
Work on `O=C([C@H]1CCCN1S(=O)(=O)c1ccccc1[N+](=O)[O-])N1CCN(c2ccnc3cc(Cl)ccc23)CC1` yielded a pIC50 (Entamoeba histolytica) of 5.68, a pIC50 (Plasmodium falciparum) of 5.39 and a pIC50 (HEK293) of 4.24. For the same compound, the selectivity ratio [1] was 14.2, the inhibition [2] was < 1% and the Activity (Anopheles arabiensis [3]) was “inactive”.
Compound `O=C(CN1CCN(c2ccnc3cc(Cl)ccc23)CC1)NC1CCCCC1` has a pIC50 (Entamoeba histolytica) of 6.07.
Work on `Cc1cc(C)c(S(=O)(=O)N2CCC[C@@H]2C(=O)N2CCN(c3ccnc4cc(Cl)ccc34)CC2)c(C)c1` yielded a pIC50 (Entamoeba histolytica) of 6.85, a pIC50 (Plasmodium falciparum) of 4.71 and a pIC50 (HEK293) of 4.83. For the same compound, the selectivity ratio [1] was 0.75, the inhibition [2] was < 1% and the Activity (Anopheles arabiensis [3]) was “inactive”.
In the case of `O=C(CN1CCN(c2ccnc3cc(Cl)ccc23)CC1)Nc1ccc(F)cc1`, the pIC50 (Entamoeba histolytica) was 6.39.
Work on `Cc1ccc(S(=O)(=O)N2CCC[C@@H]2C(=O)N2CCN(c3ccnc4cc(Cl)ccc34)CC2)cc1` yielded a pIC50 (Entamoeba histolytica) of 6.47, a pIC50 (Plasmodium falciparum) of 5.85 and a pIC50 (HEK293) of 4.09. The selectivity ratio [1] was 57.1, the inhibition [2] was < 1% and the Activity (Anopheles arabiensis [3]) was “inactive”.
In the case of `CC[C@@]1(O)C(=O)OCc2c1cc1n(c2=O)Cc2cc3ccccc3nc2-1` [CAMPTOTHECIN], the pIC50 (HEK293) was 8.00.
Compound `Cc1c(C)c2c(c(C)c1O)CCC(C)(C(=O)O)O2` (stereo unspecified) has an inhibition [2] of 74%.
With `C=C[C@H]1CN2CC[C@H]1C[C@H]2[C@H](O)c1ccnc2ccc(OC)cc12` [QUININE] the pIC50 (Plasmodium falciparum) was 6.74, the pIC50 (HEK293) was 3.56 and the selectivity ratio [1] was 1490.
In the case of `Clc1ccc(C(c2ccc(Cl)cc2)C(Cl)(Cl)Cl)cc1` [CHLOROPHENOTHANE], the Activity (Anopheles arabiensis [3]) was 100% and the LC50 (Anopheles arabiensis [4]) was 500 nM.
Compound `COc1ccc(S(=O)(=O)N2CCC[C@@H]2C(=O)N2CCN(c3ccnc4cc(Cl)ccc34)CC2)cc1` has a pIC50 (Entamoeba histolytica) of 5.24, a pIC50 (Plasmodium falciparum) of 5.40 and a pIC50 (HEK293) of 4.24. For the same compound, the selectivity ratio [1] was 14.3, the inhibition [2] was < 1% and the Activity (Anopheles arabiensis [3]) was “inactive”.
Compound `O=C([C@H]1CCCN1S(=O)(=O)c1cc(Cl)ccc1Cl)N1CCN(c2ccnc3cc(Cl)ccc23)CC1` has a pIC50 (Entamoeba histolytica) of 5.05, a pIC50 (Plasmodium falciparum) of 5.38 and a pIC50 (HEK293) of 4.42. The selectivity ratio [1] was 9.02, the inhibition [2] was < 1% and the Activity (Anopheles arabiensis [3]) was “inactive”.
